Reference: patent US5380825A (Sigma Chemical Company, priority 1991, dated 1995)
≈ marks a conversion by molar mass, not a printed value.

Legend:
[1] = tested on: antibodies from Rabbit No. 2 produced in response to immunization with AZT-3-V:BSA; experiment: AZT microtiter plate enzyme immunoassay (EIA); type: binding; settings: tracer AZT-3-V:HRPO; for Net Absorbence (B): zero standard 0.367
Protocol: (§1) The immunogen (1 mg in 1 ml) was emulsified with an equal volume of Freund's Complete Adjuvant and injected intradermally into each of two female albino rabbits. The process was repeated in two weeks. Two weeks later, monthly subcutaneous booster injections were begun with 0.5 mg in 0.5 ml of the immunogen and 0.5 ml of Freund's Incomplete Adjuvant per animal. The rabbits were bled biweekly by a marginal ear vein technique beginning six weeks after the primary immunization. The blood collected was refrigerated, allowing clots to form, and the supernatant (antiserum) retained. The antiserum from each rabbit was collected and stored, either at -20° C. without preservative, or at 4° C. after addition of sodium azide to a final concentration of 0.1%. The same schedule was followed for each immunogen. Rabbits immunized produced antibodies to AZT.
To each well of a 96 well microtiter plate was added 100 ul of diluted rabbit antibodies (Example 45) to AZT-3-V:BSA prepared via active ester (Example 4) previously fractionated with ammonium sulfate. After incubation overnight, the plate was washed and 300 ul of diluted normal rabbit serum was added to each well to block any unbound sites on the plastic surface of the microtiter plate. The plate was again washed and the excess moisture removed. […] The plate was incubated for 60 minutes at room temperature. The plate was then washed and 300 ul of diluted o-phenylenediaminehydrogen peroxide substrate solution was added to each well. The color was allowed to develop for 90 minutes at room temperature in the dark. Absorbances were then measured spectrophotometrically for each well.

[2] = tested on: antibodies from Rabbit No. 1 produced in response to immunization with AZT-3-V:BSA; experiment: Fluorescence polarization immunoassay (FPIA) for AZT, standard curve; type: binding; settings: tracer AZT-3-B:FAM Isomer I, zero standard 166
Protocol: as §1
(§2) Fluorescence Polarization Immunoassay for AZT
The following procedure illustrates the use of various materials of the invention in a preferred FPIA method.
(§3) An equal volume of precipitation reagent was added per microcentrifuge tube. The tubes were centrifuged at greater than 9,000×g for 1 minute.
(§4) (2) A 17.5 ul sample of each serum extract was brought to approximately pH 7-8 by the addition of buffer.
(§5) (4) After an appropriate incubation time, the polarization of each reaction mixture was determined using a polarization spectrofluorimeter.

[3] = at high dosage levels; cited from earlier work
[4] = tested on: AZT antibodies; experiment: Immunological activity / tracer performance in FPIA for AZT (qualitative); type: binding; settings: qualitative
Protocol: as §3, §4, §5

[5] = tested on: antisera to AZT, Rabbit 2 (immunized with AZT-3-V:BSA); experiment: FPIA comparison of tracers, antiserum of Rabbit 2 (Table 1); type: binding; settings: for Polarization Units (P × 1000): 1 pmole of tracer, antiserum at the given titer; for ED50 AZT: concentration of AZT giving 50% reduction in polarization of this tracer relative to 0 tube; for Titer [Ab]: dilution of antiserum required to obtain the given polarization units with 1 pmole of tracer
Protocol: as §1, §2, §3, §4, §5
(§6) As further illustration of the invention polyclonal antibodies were raised in two rabbits by immunization with the conjugate of Example 4 (AZT-3-V:BSA) as is more fully described in Example 45 and stored at 4° C. with 0.1% sodium azide. A number of tracers were then compared as to their performance in FPIA using the antisera raised from two rabbits.
(§7) ^(1) TITER was defined as the dilution of antiserum (i.e., [Ab])
(§8) required to obtain the given polarization units (P × 1000) with 1
(§9) required to give a 50% reduction in polarization relative to a control (0
(§10) tube) containing no unlabeled AZT.

[6] = tested on: antisera to AZT, Rabbit 1 (immunized with AZT-3-V:BSA); experiment: FPIA comparison of tracers, antiserum of Rabbit 1 (Table 1); type: binding; settings: for Polarization Units (P × 1000): 1 pmole of tracer, antiserum at the given titer; for ED50 AZT: concentration of AZT giving 50% reduction in polarization of this tracer relative to 0 tube; for Titer [Ab]: dilution of antiserum required to obtain the given polarization units with 1 pmole of tracer
Protocol: as §1, §2, §3, §4, §5, §6, §7, §8, §9, §10

[7] = major metabolite of AZT; cited from earlier work
[8] = Solubility in water; type: physicochemical; settings: UV, assuming E^M275 = 8600, read-out: concentration of saturated aqueous solution
Protocol: A mixture of 25 mg AZT-3-AA (Example 19), 15 mg NOS and 15 mg DCC in 1 ml of THF was stirred two hours at room temperature, then a solution of 25 mg TME in 500 ul of THF/MeOH (9+1) was added and the mixture was stirred overnight at room temperature. The suspension was filtered through a PTFE membrane to remove dicyclohexylurea and chromatographed by TLC on silica gel-F 250 um using the solvent system CHCl3 /MeOH/HOAc (90+10+1). Three major UV-absorbing bands were located: TME, Rf =0.13, ninhydrin positive, Pauly positive, migrates with TME reference; NOS, Rf =0.33, ninhydrin negative, Pauly negative, migrates with NOS reference; and product, Rf =0.40, ninhydrin negative, Pauly positive. The band corresponding to the product was scraped, eluted with MeOH and rechromatographed on RPF 250 um using the solvent system MeOH/H2 O/HOAc (33+66+2) to remove a trace of NOS. In this second chromatography system, Rf =0.42 (product) and Rf =0.81 (NOS). The product was eluted with MeOH/THF (1+1). A saturated aqueous solution was prepared and filtered through a PTFE membrane and stored at -20° C. The saturated aqueous solution was characterized by a UV wavelength scan and concentration of the solute was calculated to be 47 ug/ml, assuming E^M275 =8600.

[9] = tested on: antibody to AZT; experiment: Nephelometric inhibition immunoassay (NIA) for AZT; type: binding; settings: qualitative
Protocol: Typically this conjugate is prepared from a high molecular weight carrier such as horse apoferritin or serum proteins.

[10] = tested on: AZT antibodies; experiment: Fluorescence quenching technique for assaying AZT; type: binding; settings: qualitative
From the text: Fluorescence quenching and fluorescence enhancement immunoassays are other homogeneous fluorescent assays based on the observation that some antibodies, upon binding to a fluorescent molecule, cause either an enhancement or decrease in fluorescence.

Compound	immunological activity in FPIA for AZT [4]	Polarization Units (P × 1000) [5]	ED50 AZT [5]	Titer [Ab] [5]	Polarization Units (P × 1000) [6]	ED50 AZT [6]	Titer [Ab] [6]	performance as tracer for determination of AZT by FPIA [4]	other results
Cc1cn([C@H]2C[C@H](N=[N+]=[N-])[C@@H](CO)O2)c(=O)[nH]c1=O (single isomer, unassigned) [AZT, 3'-azido-3'-deoxythymidine]	immunologically active	–	–	–	–	–	–	–	% B/Bo ([1]; AZT 0.1 ng/ml): 88%; Net Absorbence (B) ([1]; AZT 0.1 ng/ml): 0.323; % B/Bo ([1]; AZT 0.4 ng/ml): 74%; Net Absorbence (B) ([1]; AZT 0.4 ng/ml): 0.273; % B/Bo ([1]; AZT 1.6 ng/ml): 56%; Net Absorbence (B) ([1]; AZT 1.6 ng/ml): 0.205; % B/Bo ([1]; AZT 6.3 ng/ml): 41%; Net Absorbence (B) ([1]; AZT 6.3 ng/ml): 0.149; % B/Bo ([1]; AZT 25.3 ng/ml): 23%; Net Absorbence (B) ([1]; AZT 25.3 ng/ml): 0.085; % B/Bo ([1]; AZT 101.1 ng/ml): 12%; Net Absorbence (B) ([1]; AZT 101.1 ng/ml): 0.044; Polarization Units (P × 1000) ([2]; AZT 0.2 uM): 155 P × 1000; Polarization Units (P × 1000) ([2]; AZT 0.6 uM): 141 P × 1000; Polarization Units (P × 1000) ([2]; AZT 1.7 uM): 118 P × 1000; Polarization Units (P × 1000) ([2]; AZT 5.0 uM): 87 P × 1000; Polarization Units (P × 1000) ([2]; AZT 14.7 uM): 61 P × 1000; side effects [3]: serious side effects at high dosage levels
Cc1cn([C@H]2C[C@H](N=[N+]=[N-])[C@@H](CO)O2)c(=O)n(CCCNC(=S)Nc2ccc3c(c2)C(=O)OC32c3ccc(O)cc3Oc3cc(O)ccc32)c1=O [Example 30, 5-[3-(3'-azido-3'-deoxythymid-3-yl)-propyl-thiocarbamyl]fluorescein]	–	170 P × 1000	4.0 µg/mL (≈ 5.6 µM)	80	159 P × 1000	> 4.0 µg/mL	80	satisfactory tracer	–
COc1nc(NCCCn2c(=O)c(C)cn([C@H]3C[C@H](N=[N+]=[N-])[C@@H](CO)O3)c2=O)nc(Nc2ccc3c(c2)C(=O)OC32c3ccc(O)cc3Oc3cc(O)ccc32)n1 [Example 32, 3-[3-[4-(fluoresceinyl-5)-6-methoxy-s-triazin-2-yl]-aminopropyl]-3'-azido-3'-deoxythymidine]	–	170 P × 1000	~ 8.0 ug/ml	183	179 P × 1000	3.1 µg/mL (≈ 3.98 µM)	550	satisfactory tracer	–
Cc1cn([C@H]2C[C@H](N=[N+]=[N-])[C@@H](CO)O2)c(=O)n(CCCCC(=O)Nc2ccc3c(c2)C(=O)OC32c3ccc(O)cc3Oc3cc(O)ccc32)c1=O [Example 6]	immunologically active	175 P × 1000	8.0 µg/mL (≈ 11.5 µM)	130	179 P × 1000	4.0 µg/mL (≈ 5.74 µM)	300	–	–
COc1nc(NCCn2c(=O)c(C)cn([C@H]3C[C@H](N=[N+]=[N-])[C@@H](CO)O3)c2=O)nc(Nc2ccc3c(c2)C(=O)OC32c3ccc(O)cc3Oc3cc(O)ccc32)n1 [Example 17, 3-[2-[4-(Fluoresceinyl-5)-6-methoxy-s-triazin-2-yl]aminoethyl]-3'-azido-3'-deoxythymidine]	immunologically active	179 P × 1000	4.9 µg/mL (≈ 6.41 µM)	100	160 P × 1000	2.5 µg/mL (≈ 3.27 µM)	190	–	–
Cc1cn([C@H]2C[C@H](N=[N+]=[N-])[C@@H](CO[C@@H]3O[C@H](C(=O)O)[C@@H](O)[C@H](O)[C@H]3O)O2)c(=O)[nH]c1=O [AZT-5'-glucuronide]	–	–	–	–	–	–	–	–	pharmacological activity [7]: believed to be pharmacologically inactive
COC(=O)C(Cc1ccc(O)cc1)NC(=O)Cn1c(=O)c(C)cn([C@H]2C[C@H](N=[N+]=[N-])[C@@H](CO)O2)c1=O (stereo partly shown) [Example 24, 2-[2-(3'-azido-3'-deoxythymid-3-yl)-acetamido]-3-(4-hydroxyphenyl)-propionic acid methyl ester]	immunologically active	–	–	–	–	–	–	–	solubility [8]: 47 µg/mL (≈ 93.5 µM); immunological activity in NIA for AZT [9]: immunologically active
Cc1cn([C@H]2C[C@H](N=[N+]=[N-])[C@@H](CO)O2)c(=O)n(CCNC(=S)Nc2ccc3c(c2)C(=O)OC32c3ccc(O)cc3Oc3cc(O)ccc32)c1=O [Example 29, 5-[2-(3'-azido-3'-deoxythymid-3-yl)-ethyl-thiocarbamyl]fluorescein]	–	177 P × 1000	2.9 µg/mL (≈ 4.14 µM)	58	180 P × 1000	3.9 µg/mL (≈ 5.57 µM)	150	satisfactory tracer	–
COC(=O)C(Cc1ccc(O)cc1)NC(=O)CCC(=O)OC[C@H]1O[C@@H](n2cc(C)c(=O)[nH]c2=O)C[C@@H]1N=[N+]=[N-] (stereo partly shown) [Example 43, 2-[(3'-azido-3'-deoxythymid-5'-yl)-succinamido]-3-(4-hydroxyphenyl)-propionic acid methyl ester]	immunologically active	–	–	–	–	–	–	–	immunological activity in NIA for AZT [9]: immunologically active
Cc1cn([C@H]2C[C@H](N=[N+]=[N-])[C@@H](COC(=O)CCC(=O)Nc3ccc4c(c3)C(=O)OC43c4ccc(O)cc4Oc4cc(O)ccc43)O2)c(=O)[nH]c1=O [Example 41, 5-[(3'-azido-3'-deoxythymid-5'-yl)-succinamido]-fluorescein]	–	–	–	–	–	–	–	–	immunoactivity by fluorescence quenching technique [10]: Immunoactivity of the product was demonstrated
